Results reported in patent US7378375B1, “Substituted pyridine herbicides” (Syngenta Crop Protection, Inc., priority 2000, dated 2008).

Key:
[1] = test system: Monocotyledonous and dicotyledonous test plants; assay: Post-emergence herbicidal action, greenhouse pot test, sprayed at the 2- to 3-leaf stage, 9-level rating after 2 to 3 weeks; type: in vivo; conditions: 250 g/ha, rated after 2 to 3 weeks, 9-level scale
Procedure: Post-Emergence Herbicidal Action
Monocotyledonous and dicotyledonous test plants are grown in standard soil in pots. At the 2- to 3-leaf stage of the test plants, the test substances are sprayed at optimum dosage (500 l of water/ha) as an aqueous suspension (prepared from a wettable powder (example F3, b) according to WO 97/34485) or emulsion (prepared from an emulsion concentrate (example F1, c) according to WO 97/34485). The test plants are then grown further under optimum conditions in a greenhouse.
After a test period of 2 to 3 weeks, the test is evaluated using a 9-level scale of rating (1=complete damage, 9=no effect). Ratings of 1 to 4 (in particular 1 to 3) mean good to very good herbicidal action.

[2] = test system: Monocotyledonous and dicotyledonous test plants; assay: Herbicidal action before emergence of the plants (pre-emergence action), greenhouse pot test, 9-level rating after 4 weeks; type: in vivo; conditions: 250 g/ha, rated after 4 weeks, 9-level scale
Procedure: Herbicidal Action Before Emergence of the Plants (Pre-Emergence Action)
Monocotyledonous and dicotyledonous test plants are sown in standard soil in pots. Immediately after sowing, the test substances are sprayed on at an optimum dosage (500 l of water/ha) as an aqueous suspension (prepared from a wettable powder (example F3, b) according to WO 97/34485) or emulsion (prepared from an emulsion concentrate (example F1, c) according to WO 97/34485). The test plants are then grown under optimum conditions in a greenhouse.
After a test period of 4 weeks, the test is evaluated using a 9-level scale of ratings (1=complete damage, 9=no effect). Ratings of 1 to 4 (in particular 1 to 3) mean good to very good herbicidal action.

SMILES | Post-emergence action rating, Abutilon [1] | Post-emergence action rating, Amaranth [1] | Post-emergence action rating, Chenop. [1] | Post-emergence action rating, Digitaria [1] | Post-emergence action rating, Echino. [1] | Post-emergence action rating, Ipopur. [1] | Post-emergence action rating, Panicum [1] | Post-emergence action rating, Xanth. [1] | Pre-emergence action rating, Abutilon [2] | Pre-emergence action rating, Amaranthus [2] | Pre-emergence action rating, Chenop. [2] | Pre-emergence action rating, Digitaria [2] | Pre-emergence action rating, Echino. [2] | Pre-emergence action rating, Panicum [2]
COCCOCc1nc(C(F)(F)F)ccc1C(=O)C1=C(O)CCC(C)(C)C1=O [A10-B3] | 1 | 1 | 1 | 1 | 3 | 2 | 1 | 1 | 1 | 1 | 1 | 1 | 1 | 1
COCCOCc1nc(C(F)(F)F)ccc1C(=O)C1=C(O)C(C)(C)CC(C)C1=O (stereo not drawn) [A10-B4] | 1 | 2 | 1 | 1 | 2 | 1 | 1 | 2 | 3 | 1 | 1 | 3 | 1 | 2
CCOC(=O)C1(C)CCC(=O)C(C(=O)c2ccc(C(F)(F)F)nc2COCCOC)=C1O (stereo not drawn) [A10-B14] | 2 | 2 | 1 | 2 | 3 | 2 | 2 | 2 | 1 | 1 | 1 | 6 | 3 | 3
COCCOCc1nc(C(F)(F)F)ccc1C(=O)C1=C(O)CCC2(CC2)C1=O [A10-B17] | 2 | 2 | 1 | 1 | 2 | 2 | 2 | 2 | 4 | 2 | 1 | 1 | 1 | 1
COCCOCc1nc(C(F)(F)F)ccc1C(=O)C1=C(O)C(C)(C)ON(C)C1=O [A10-B25] | 3 | 2 | 1 | 4 | 4 | 3 | 3 | 3 | 1 | 1 | 1 | 1 | 2 | 1
COCCOCc1nc(C(F)(F)F)ccc1C(=O)C1=C(O)C(C)(C)C(=O)C(C)(C)C1=O [A10-B39] | 1 | 1 | 1 | 3 | 3 | 2 | 1 | 2 | 1 | 1 | 1 | 1 | 1 | 1
